Legend:
KDR = KDR (Homo sapiens, UniProt P35968); test: KDR HTRF in vitro kinase assay; type: biochemical; design: purified enzyme (His6-KDR 789-1354, MW 63 kD); His6 (N); details: 1 mM ATP; read-out: KDR enzyme inhibition data (Ki)
Outline: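 His6-KDR 789-1354 (7 ng/well) with 0.5 μM biotinylated peptide substrate and 1 mM ATP in HEPES pH 7.1, MgCl2/MnCl2, 60 min at room temperature. EDTA-quenched, detected by streptavidin-XL-665 plus Eu-kryptate anti-phosphotyrosine HTRF after 3 h; IC50 from 620/665 nm ratio.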

NCI-H1299 cells = test: Induction of polyploidy in H1299; type: cell-based, Human; details: Homo sapiens; NCI-H1299, 48 hours; read-out: EC15 (concentration of inhibitor necessary to induce polyploidy in 15% of cells)
Outline: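 Potency is given as EC15, the inhibitor concentration giving 15% polyploid cells, from log dose-response least-squares analysis. Polyploid cells (nuclear area >750 μ^2, ≥4N) were counted by Hoechst high-content microscopy. H1299 cells had been exposed for 48 h at 37 C in duplicate, then fixed in 3% formalin.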

Aurora A = target: T1, Aurora A (Homo sapiens, UniProt O14965); test: Aurora A enzyme inhibition (time-resolved fluorescence, STK substrate-2); type: biochemical; details: 1 mM ATP
T1 sequence (O14965 1-403): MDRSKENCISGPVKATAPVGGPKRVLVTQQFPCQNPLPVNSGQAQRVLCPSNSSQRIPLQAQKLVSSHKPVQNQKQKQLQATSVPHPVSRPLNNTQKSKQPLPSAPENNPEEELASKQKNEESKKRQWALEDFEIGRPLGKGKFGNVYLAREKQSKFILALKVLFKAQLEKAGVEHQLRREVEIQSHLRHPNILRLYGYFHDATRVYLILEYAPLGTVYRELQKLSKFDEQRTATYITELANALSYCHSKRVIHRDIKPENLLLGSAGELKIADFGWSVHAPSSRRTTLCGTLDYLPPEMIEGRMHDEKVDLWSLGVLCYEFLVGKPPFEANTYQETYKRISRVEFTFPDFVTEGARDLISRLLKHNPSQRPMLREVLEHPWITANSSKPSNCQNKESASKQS
Outline: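 Phosphorylation of biotinylated STK substrate-2 at 1 mM ATP, 1 h, Hepes buffer pH 7.4 (MgCl2, sodium orthovanadate, Triton X-100). After EDTA quench, 665/615 nm time-resolved fluorescence ratio read via europium anti-phospho antibody and SA-XL665; IC50 from exponential fit versus inhibitor concentration.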

Aurora B = target: T2, Aurora B (Homo sapiens, UniProt Q96GD4); test: Aurora B enzyme inhibition (time-resolved fluorescence, histone H3 peptide); type: biochemical; details: 1 mM ATP
T2 construct: Active Aurora B enzyme (recombinant residues 1-344)
T2 sequence (Q96GD4 whole entry, the tested form may be a part): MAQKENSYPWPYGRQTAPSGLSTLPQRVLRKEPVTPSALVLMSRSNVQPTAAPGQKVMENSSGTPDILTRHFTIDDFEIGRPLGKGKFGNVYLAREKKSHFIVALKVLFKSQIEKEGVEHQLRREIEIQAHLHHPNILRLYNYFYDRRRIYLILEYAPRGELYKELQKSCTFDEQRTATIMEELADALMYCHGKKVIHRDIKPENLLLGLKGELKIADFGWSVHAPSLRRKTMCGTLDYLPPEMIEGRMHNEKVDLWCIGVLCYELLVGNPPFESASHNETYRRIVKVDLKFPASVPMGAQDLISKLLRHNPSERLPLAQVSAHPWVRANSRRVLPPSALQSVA
T2 sequence (Q9NQS7 826-918 partner limits assumed): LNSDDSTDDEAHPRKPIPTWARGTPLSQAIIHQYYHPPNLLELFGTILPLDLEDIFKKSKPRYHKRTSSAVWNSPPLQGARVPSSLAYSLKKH
Outline: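 IC50s came from an exponential fit of inhibition against inhibitor concentration, with phosphorylation read as the 665/615 nm time-resolved fluorescence ratio after EDTA stop using Eu-anti-phospho-H3 and SA-APC. The 1 h reaction used Aurora B 1-344 plus GST-INCENP, biotin-histone H3 1-21 peptide and 1 mM ATP in pH 7.4 HEPES buffer.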

Sequence of KDR (P35968 789-1354): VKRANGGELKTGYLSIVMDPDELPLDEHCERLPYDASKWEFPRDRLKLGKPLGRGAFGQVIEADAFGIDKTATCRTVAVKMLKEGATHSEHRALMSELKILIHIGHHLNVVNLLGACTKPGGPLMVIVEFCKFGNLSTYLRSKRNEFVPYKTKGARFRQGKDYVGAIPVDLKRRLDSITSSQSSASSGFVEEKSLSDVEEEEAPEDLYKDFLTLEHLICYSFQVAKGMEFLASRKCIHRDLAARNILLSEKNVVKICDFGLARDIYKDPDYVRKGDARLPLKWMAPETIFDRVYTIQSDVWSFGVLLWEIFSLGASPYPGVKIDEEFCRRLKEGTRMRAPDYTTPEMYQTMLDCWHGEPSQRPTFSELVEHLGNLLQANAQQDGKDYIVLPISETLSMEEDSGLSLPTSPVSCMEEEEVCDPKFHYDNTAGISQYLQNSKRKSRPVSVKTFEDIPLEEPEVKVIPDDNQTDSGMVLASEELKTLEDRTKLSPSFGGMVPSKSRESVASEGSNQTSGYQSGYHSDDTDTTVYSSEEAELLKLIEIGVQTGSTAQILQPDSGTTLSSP

SMILES	Ki (KDR) [nM]	Ki (Aurora A) [nM]	Ki (Aurora B) [nM]	EC15 (NCI-H1299 cells) [nM]
NC(=O)[C@H]1[C@@H]2CC[C@@H](C2)[C@H]1Nc1nc(Nc2cnn(CCO)c2)ncc1Cl [Example 93, (1R,2S,3R,4S)-3-[(5-chloro-2-{[1-(2-hydroxyethyl)-1H-pyrazol-4-yl]amino}pyrimidin-4-yl)amino]bicyclo[2.2.1]heptane-2-carboxamide]	< 100	< 100	< 100	< 100
Cn1cc(Nc2ncc(Cl)c(Nc3ccccc3C3(O)CCC3)n2)cn1 [Example 101, 1-[2-({5-chloro-2-[(1-methyl-1H-pyrazol-4-yl)amino]pyrimidin-4-yl}amino)phenyl]cyclobutanol]	< 100	< 100	< 100	< 100
NC(=O)[C@@H]1[C@H](Nc2nc(Nc3cnn(C[C@H]4CCCN4)c3)ncc2Cl)[C@H]2C=C[C@@H]1C2 [Example 102, (1S,2S,3R,4R)-3-{[5-chloro-2-({1-[(2R)-pyrrolidin-2-ylmethyl]-1H-pyrazol-4-yl}amino)pyrimidin-4-yl]amino}bicyclo[2.2.1]hept-5-ene-2-carboxamide]	< 100	< 100	< 100	< 100
C[C@@H](O)Cn1cc(Nc2ncc(Cl)c(N[C@@H]3[C@H]4CC[C@H](C4)[C@@H]3C(N)=O)n2)cn1 [Example 104, (1R,2S,3R,4S)-3-{[5-chloro-2-({1-[(2R)-2-hydroxypropyl]-1H-pyrazol-4-yl}amino)pyrimidin-4-yl]amino}bicyclo[2.2.1]heptane-2-carboxamide]	< 100	< 100	< 100	< 100
NC(=O)[C@@H]1[C@H](Nc2nc(Nc3cnn([C@@H]4CCOC4)c3)ncc2Cl)[C@H]2C=C[C@@H]1C2 [Example 107, (1S,2S,3R,4R)-3-{[5-chloro-2-({1-[(3R)-tetrahydrofuran-3-yl]-1H-pyrazol-4-yl}amino)pyrimidin-4-yl]amino}bicyclo[2.2.1]hept-5-ene-2-carboxamide]	< 100	< 100	< 100	< 100
NC(=O)[C@@H]1[C@H](Nc2nc(Nc3cnn([C@H]4CCOC4)c3)ncc2Cl)[C@H]2C=C[C@@H]1C2 [Example 108, (1S,2S,3R,4R)-3-{[5-chloro-2-({1-[(3S)-tetrahydrofuran-3-yl]-1H-pyrazol-4-yl}amino)pyrimidin-4-yl]amino}bicyclo[2.2.1]hept-5-ene-2-carboxamide]	< 100	< 100	< 100	< 100
Cn1cc(Nc2ncc(C(F)(F)F)c(Nc3ccccc3C3(O)CNC3)n2)cn1 [Example 109, 3-[2-({2-[(1-methyl-1H-pyrazol-4-yl)amino]-5-(trifluoromethyl)pyrimidin-4-yl}amino)phenyl]azetidin-3-ol]	< 100	< 100	< 100	< 100
Cn1cc(Nc2ncc(C(F)(F)F)c(Nc3ccccc3C3(O)CCC3)n2)cn1 [Example 115, 1-[2-({2-[(1-methyl-1H-pyrazol-4-yl)amino]-5-(trifluoromethyl)pyrimidin-4-yl}amino)phenyl]cyclobutanol]	< 100	< 100	< 100	< 100

The next lines start with results.

Ki (KDR) [nM]	Ki (Aurora A) [nM]	Ki (Aurora B) [nM]	SMILES	EC15 (NCI-H1299 cells) [nM]
< 100	< 100	< 100	CN1CCC(Cn2cc(Nc3ncc(Cl)c(N[C@H]4[C@@H](C(N)=O)[C@@H]5C=C[C@H]4C5)n3)cn2)CC1 [Example 97, (1S,2S,3R,4R)-3-{[5-chloro-2-({1-[(1-methylpiperidin-4-yl)methyl]-1H-pyrazol-4-yl}amino)pyrimidin-4-yl]amino}bicyclo[2.2.1]hept-5-ene-2-carboxamide]	100 to 1000
< 100	< 100	< 100	CC(C)n1cc(Nc2ncc(Cl)c(N[C@H]3[C@@H](C(N)=O)[C@@H]4C=C[C@H]3C4)n2)cn1 [Example 98, (1S,2S,3R,4R)-3-({5-chloro-2-[(1-isopropyl-1H-pyrazol-4-yl)amino]pyrimidin-4-yl}amino)bicyclo[2.2.1]hept-5-ene-2-carboxamide]	< 100
< 100	< 100	< 100	CC(C)CCn1cc(Nc2ncc(Cl)c(N[C@H]3[C@@H](C(N)=O)[C@@H]4C=C[C@H]3C4)n2)cn1 [Example 99, (1S,2S,3R,4R)-3-[(5-chloro-2-[1-(3-methylbutyl)-1H-pyrazol-4-yl]aminopyrimidin-4-yl)amino]bicyclo[2.2.1]hept-5-ene-2-carboxamide]	< 100
< 100	< 100	< 100	COCCOCCn1cc(Nc2ncc(Cl)c(N[C@H]3[C@@H](C(N)=O)[C@@H]4C=C[C@H]3C4)n2)cn1 [Example 100, (1S,2S,3R,4R)-3-{[5-chloro-2-({1-[2-(2-methoxyethoxy)ethyl]-1H-pyrazol-4-yl}amino)pyrimidin-4-yl]amino}bicyclo[2.2.1]hept-5-ene-2-carboxamide]	< 100
< 100	< 100	< 100	NC(=O)[C@@H]1[C@H](Nc2nc(Nc3cnn(CC(=O)O)c3)ncc2Cl)[C@H]2C=C[C@@H]1C2 [Example 103, {4-[(4-{[(1R,2R,3S,4S)-3-carbamoylbicyclo[2.2.1]hept-5-ene-2-yl]amino}-5-chloropyrimidin-2-yl)amino]-1H-pyrazol-1-yl}acetic acid]	< 100
< 100	< 100	< 100	C[C@@H](O)Cn1cc(Nc2ncc(Cl)c(N[C@H]3[C@@H](C(N)=O)[C@@H]4C=C[C@H]3C4)n2)cn1 [Example 105, (1S,2S,3R,4R)-3-{[5-chloro-2-({1-[(2R)-2-hydroxypropyl]-1H-pyrazol-4-yl}amino)pyrimidin-4-yl]amino}bicyclo[2.2.1]hept-5-ene-2-carboxamide]	< 100
< 100	< 100	< 100	COCCn1cc(Nc2ncc(Br)c(N[C@H]3[C@@H](C(N)=O)[C@@H]4C=C[C@H]3C4)n2)cn1 [Example 106, (1S,2S,3R,4R)-3-[(5-bromo-2-{[1-(2-methoxyethyl)-1H-pyrazol-4-yl]amino}pyrimidin-4-yl)amino]bicyclo[2.2.1]hept-5-ene-2-carboxamide]	< 100
< 100	< 100	< 100	COCCOCCn1cc(Nc2ncc(Br)c(N[C@H]3[C@@H](C(N)=O)[C@@H]4C=C[C@H]3C4)n2)cn1 [Example 110, (1S,2S,3R,4R)-3-{[5-bromo-2-({1-[2-(2-methoxyethoxy)ethyl]-1H-pyrazol-4-yl}amino)pyrimidin-4-yl]amino}bicyclo[2.2.1]hept-5-ene-2-carboxamide]	< 100
< 100	< 100	< 100	CC(C)CCn1cc(Nc2ncc(Br)c(N[C@H]3[C@@H](C(N)=O)[C@@H]4C=C[C@H]3C4)n2)cn1 [Example 111, (1S,2S,3R,4R)-3-[(5-bromo-2-{[1-(3-methylbutyl)-1H-pyrazol-4-yl]amino}pyrimidin-4-yl)amino]bicyclo[2.2.1]hept-5-ene-2-carboxamide]	< 100
< 100	< 100	< 100	CC(C)n1cc(Nc2ncc(Br)c(N[C@H]3[C@@H](C(N)=O)[C@@H]4C=C[C@H]3C4)n2)cn1 [Example 112, (1S,2S,3R,4R)-3-({5-bromo-2-[(1-isopropyl-1H-pyrazol-4-yl)amino]pyrimidin-4-yl}amino)bicyclo[2.2.1]hept-5-ene-2-carboxamide]	< 100

— US8426408B2, “Pyrimidine inhibitors of kinases” (AbbVie Inc., priority 2009, dated 2013)
